ChEMBL document CHEMBL3739267, “Synthesis of 2,6-dicarbethoxy-3,5-diaryltetrahydro-1,4-thiazine-1,1-dioxide derivatives as potent anticonvulsant agents” (Eur J Med Chem, 2015)
Activity calls are given as the source filed them. The rule behind the calls is not given here.

Key:
Mus musculus [1] = test: Anticonvulsant activity in ip dosed Swiss albino mouse assessed as reduction of subcutaneous pentylenetetrazole-induced seizure; assay type: functional
Mus musculus [2] = test: Anticonvulsant activity in ip dosed Swiss albino mouse assessed as reduction of subcutaneous pentylenetetrazole-induced seizure after 0.5 hrs; assay type: functional; settings: read-out: MED
Mus musculus [3] = test: Neurotoxicity in Swiss albino mouse assessed as inability of animal to maintain equilibrium on rod at 300 mg/kg, ip after 0.5 hrs by rotarod test; assay type: toxicity, organism-based; settings: in vivo
Mus musculus [4] = test: Anticonvulsant activity in ip dosed Swiss albino mouse assessed as reduction of maximal electroshock-induced seizure after 0.5 hrs; assay type: functional; settings: read-out: MED
Mus musculus [5] = test: Neurotoxicity in Swiss albino mouse assessed as inability of animal to maintain equilibrium on rod at 300 mg/kg, ip after 4 hrs by rotarod test; assay type: toxicity, organism-based; settings: in vivo
Mus musculus [6] = test: Anticonvulsant activity in ip dosed Swiss albino mouse assessed as reduction of maximal electroshock-induced seizure after 4 hrs; assay type: functional; settings: read-out: MED
[7] = (§1) Neurotoxicity in ip dosed Swiss albino mouse assessed as inability of animal to maintain equilibrium on rod after 0.5 hrs by rotarod test; assay type: toxicity, organism-based; settings: Swiss albino, in vivo
Mus musculus [8] = test: Protective index, ratio of TD50 for ip dosed Swiss albino mouse assessed as inability of animal to maintain equilibrium on rod after 0.5 hrs by rotarod test to ED50 for Swiss albino mouse assessed as reduction of maximal electroshock-induced seizure; assay type: functional
Mus musculus [9] = test: Anticonvulsant activity in ip dosed Swiss albino mouse assessed as reduction of subcutaneous pentylenetetrazole-induced seizure after 4 hrs; assay type: functional; settings: read-out: MED
Mus musculus [10] = test: Protective index, ratio of TD50 for ip dosed Swiss albino mouse assessed as inability of animal to maintain equilibrium on rod after 0.5 hrs by rotarod test to ED50 for Swiss albino mouse assessed as subcutaneous pentylenetetrazole-induced seizure; assay type: functional
Mus musculus [11] = test: Anticonvulsant activity in ip dosed Swiss albino mouse assessed as reduction of maximal electroshock-induced seizure; assay type: functional
Mus musculus [12] = test: Neurotoxicity in ip dosed Swiss albino mouse assessed as inability of animal to maintain equilibrium on rod after 4 hrs by rotarod test; assay type: toxicity, organism-based; settings: in vivo
Mus musculus [13] = test: Anticonvulsant activity in Swiss albino mouse assessed as reduction of subcutaneous pentylenetetrazole-induced seizure at 300 mg/kg, ip after 4 hrs; assay type: functional, organism-based
Mus musculus [14] = test: Anticonvulsant activity in Swiss albino mouse assessed as reduction of subcutaneous pentylenetetrazole-induced seizure at 300 mg/kg, ip after 0.5 hrs; assay type: functional, organism-based
Mus musculus [15] = test: as §1; assay type: toxicity, organism-based; settings: in vivo, 0.5 h
Mus musculus [16] = test: Anticonvulsant activity in Swiss albino mouse assessed as reduction of maximal electroshock-induced seizure at 300 mg/kg, ip after 0.5 hrs; assay type: functional, organism-based
Mus musculus [17] = test: Anticonvulsant activity in Swiss albino mouse assessed as reduction of maximal electroshock-induced seizure at 300 mg/kg, ip after 4 hrs; assay type: functional, organism-based

SMILES | ED50 (Mus musculus [1]) [mg/kg] | minimal effective dose (Mus musculus [2]) [mg/kg] | Activity (Mus musculus [3]) | minimal effective dose (Mus musculus [4]) [mg/kg] | Activity (Mus musculus [5]) | minimal effective dose (Mus musculus [6]) [mg/kg] | TD50 at 0.5 h [7] [mg/kg] | Ratio TD50/ED50 (Mus musculus [8]) | minimal effective dose (Mus musculus [9]) [mg/kg] | Ratio TD50/ED50 (Mus musculus [10]) | ED50 (Mus musculus [11]) [mg/kg] | MTC (Mus musculus [12]) [mg/kg] | Activity (Mus musculus [13]) | Activity (Mus musculus [14]) | MTC (Mus musculus [15]) [mg/kg] | Activity (Mus musculus [16]) | Activity (Mus musculus [17])
CCCC(CCC)C(=O)O [VALPROIC ACID] | 149 |  |  |  |  |  |  |  |  |  |  |  |  |  |  |  | 
CCOC(=O)C1C(c2ccc3c(c2)OCO3)NC(c2ccc3c(c2)OCO3)C(C(=O)OCC)S1(=O)=O (stereo not drawn) | 220 | 300 | Non-toxic | 30 | Non-toxic | 100 | 248 | 9 | 300 | 1.1 | 27.4 |  |  |  |  |  | 
CCOC(=O)C1C(c2ccccc2)NC(c2ccccc2)C(C(=O)OCC)S1(=O)=O (stereo not drawn) | 58.6 | 300 | Non-toxic | 30 | Non-toxic | 100 | 131 | 8.8 | 300 | 2.2 | 14.8 |  |  |  |  |  | 
CCOC(=O)C1C(c2cccs2)NC(c2cccs2)C(C(=O)OCC)S1(=O)=O (stereo not drawn) |  | 300 | Non-toxic | 100 |  | 300 |  |  |  |  |  | 300 | inactive |  |  |  | 
CCOC(=O)C1C(c2ccsc2)NC(c2ccsc2)C(C(=O)OCC)S1(=O)=O (stereo not drawn) |  | 300 | Non-toxic | 100 |  | 300 |  |  |  |  |  | 300 | inactive |  |  |  | 
CCOC(=O)C1C(c2ccco2)NC(c2ccco2)C(C(=O)OCC)S1(=O)=O (stereo not drawn) |  |  | Non-toxic | 300 |  | 300 |  |  |  |  |  | 300 | inactive | inactive |  |  | 
CCOC(=O)C1C(c2cccc(Cl)c2)NC(c2cccc(Cl)c2)C(C(=O)OCC)S1(=O)=O (stereo not drawn) |  | 300 |  | 100 | Non-toxic | 300 |  |  |  |  |  |  | inactive |  | 300 |  | 
CCOC(=O)C1C(c2ccccn2)NC(c2ccccn2)C(C(=O)OCC)S1(=O)=O (stereo not drawn) |  |  | Non-toxic | 300 |  | 300 |  |  |  |  |  | 300 | inactive | inactive |  |  | 
CCOC(=O)C1C(c2ccc(OC)c(OC)c2)NC(c2ccc(OC)c(OC)c2)C(C(=O)OCC)S1(=O)=O (stereo not drawn) |  | 300 | Non-toxic | 100 |  | 300 |  |  |  |  |  | 300 | inactive |  |  |  | 
CCOC(=O)C1C(c2ccc[nH]2)NC(c2ccc[nH]2)C(C(=O)OCC)S1(=O)=O (stereo not drawn) |  | 300 |  | 100 | Non-toxic | 300 |  |  |  |  |  |  | inactive |  | 300 |  | 
CCOC(=O)C1C(c2ccc([N+](=O)[O-])cc2)NC(c2ccc([N+](=O)[O-])cc2)C(C(=O)OCC)S1(=O)=O (stereo not drawn) | 73.2 | 300 | Non-toxic | 30 | Non-toxic | 100 | 190 | 16.7 | 300 | 2.6 | 11.4 |  |  |  |  |  | 
CCOC(=O)C1C(c2ccc(Cl)cc2)NC(c2ccc(Cl)cc2)C(C(=O)OCC)S1(=O)=O (stereo not drawn) | 50.5 | 100 | Non-toxic | 30 | Non-toxic | 30 | 289 | 28.3 | 300 | 5.7 | 10.2 |  |  |  |  |  | 
CCC1(C)CC(=O)NC1=O (stereo not drawn) [ETHOSUXIMIDE] |  | 100 | Non-toxic |  | Non-toxic |  |  |  | 300 |  |  |  |  |  |  | inactive | inactive
NC(=O)N1c2ccccc2C=Cc2ccccc21 [CARBAMAZEPINE] | > 100 |  |  |  |  |  |  |  |  |  | 11.4 |  |  |  |  |  | 
CCOC(=O)C1C(c2cc3ccccc3[nH]2)NC(c2cc3ccccc3[nH]2)C(C(=O)OCC)S1(=O)=O (stereo not drawn) | 56.8 | 300 | Non-toxic | 30 | Non-toxic | 100 | 119 | 9 | 300 | 2.1 | 13.2 |  |  |  |  |  | 
CCOC(=O)C1C(c2ccc(OC)cc2)NC(c2ccc(OC)cc2)C(C(=O)OCC)S1(=O)=O (stereo not drawn) |  | 300 | Non-toxic | 100 |  | 300 |  |  |  |  |  | 300 | inactive |  |  |  | 
CCC1(c2ccccc2)C(=O)NC(=O)NC1=O [PHENOBARBITAL] | 13.2 |  |  |  |  |  | 68.2 |  |  |  | 20.6 |  |  |  |  |  | 
CCOC(=O)C1C(c2ccc(C)cc2)NC(c2ccc(C)cc2)C(C(=O)OCC)S1(=O)=O (stereo not drawn) | 90.2 | 300 | Non-toxic | 30 | Non-toxic | 100 | 227 | 15.7 | 300 | 2.5 | 14.4 |  |  |  |  |  | 
O=C1NC(=O)C(c2ccccc2)(c2ccccc2)N1 [PHENYTOIN] | > 300 | 100 |  | 30 |  | 30 |  |  |  |  | 9.8 | 100 | inactive | inactive | 100 |  | 
CCOC(=O)C1C(c2cc3ccccc3nc2Cl)NC(c2cc3ccccc3nc2Cl)C(C(=O)OCC)S1(=O)=O (stereo not drawn) | 62.7 | 300 | Non-toxic | 30 | Non-toxic | 100 | 128 | 10.3 | 300 | 2 | 12.4 |  |  |  |  |  | 
CCOC(=O)C1C(c2ccccc2Cl)NC(c2ccccc2Cl)C(C(=O)OCC)S1(=O)=O (stereo not drawn) |  | 300 | Non-toxic | 100 | Non-toxic | 300 |  |  |  |  |  |  | inactive |  |  |  | 
CCOC(=O)C1C(c2cccnc2)NC(c2cccnc2)C(C(=O)OCC)S1(=O)=O (stereo not drawn) |  |  | Non-toxic | 300 |  | 300 |  |  |  |  |  | 300 | inactive | inactive |  |  | 
